{
  "source": "patent US20230117034A1",
  "about": "“PYRAZOLOTRIAZINES” (Bayer Aktiengesellschaft, priority 2019, published 2023)",
  "key": {"CDK9/CycT1": {"molecular_target": "T1, CDK9/CycT1 (Homo sapiens, UniProt P50750)", "T1 construct": "Recombinant full-length His-tagged human CDK9 and CycT1; purchased Life Technologies PV4131; host or cells: insect cells", "T1 sequence (P50750 whole entry)": "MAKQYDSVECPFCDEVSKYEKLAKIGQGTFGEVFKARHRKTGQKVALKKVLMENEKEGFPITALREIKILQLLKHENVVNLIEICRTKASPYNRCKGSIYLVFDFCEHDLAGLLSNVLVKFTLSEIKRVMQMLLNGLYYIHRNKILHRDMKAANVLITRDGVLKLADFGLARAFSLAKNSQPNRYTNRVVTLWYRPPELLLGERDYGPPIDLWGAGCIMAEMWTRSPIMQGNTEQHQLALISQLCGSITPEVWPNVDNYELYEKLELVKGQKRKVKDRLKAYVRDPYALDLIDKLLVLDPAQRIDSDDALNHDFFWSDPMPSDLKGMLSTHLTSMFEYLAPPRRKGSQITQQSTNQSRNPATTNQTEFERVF", "T1 sequence (O60563 whole entry partner)": "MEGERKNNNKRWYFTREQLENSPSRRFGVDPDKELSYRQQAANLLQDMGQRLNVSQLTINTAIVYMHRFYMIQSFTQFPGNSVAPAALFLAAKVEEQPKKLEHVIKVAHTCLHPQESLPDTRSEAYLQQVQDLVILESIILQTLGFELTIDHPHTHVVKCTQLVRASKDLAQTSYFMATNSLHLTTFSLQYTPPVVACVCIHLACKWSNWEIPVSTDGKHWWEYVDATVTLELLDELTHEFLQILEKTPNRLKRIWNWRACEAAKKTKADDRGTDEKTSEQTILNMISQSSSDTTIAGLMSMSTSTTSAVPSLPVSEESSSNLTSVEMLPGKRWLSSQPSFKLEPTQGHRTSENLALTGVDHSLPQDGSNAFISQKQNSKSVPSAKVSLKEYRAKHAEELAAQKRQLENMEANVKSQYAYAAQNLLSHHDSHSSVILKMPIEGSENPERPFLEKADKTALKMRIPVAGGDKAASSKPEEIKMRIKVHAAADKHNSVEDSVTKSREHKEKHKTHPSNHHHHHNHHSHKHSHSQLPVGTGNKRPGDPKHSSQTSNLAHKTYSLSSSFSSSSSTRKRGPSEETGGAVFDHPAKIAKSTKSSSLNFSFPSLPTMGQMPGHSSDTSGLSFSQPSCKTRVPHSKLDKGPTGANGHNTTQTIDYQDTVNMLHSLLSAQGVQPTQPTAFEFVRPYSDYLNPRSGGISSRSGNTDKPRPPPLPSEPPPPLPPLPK", "assay": "CDK9/CycT1 high ATP kinase assay (TR-FRET, 2 mM ATP)", "format": "biochemical", "settings": "2 mM ATP (high ATP); median; read-out: CDK9/CyclinT1, 2 mM ATP (high ATP), IC50 (median)", "outline": "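Full-length His-tagged human CDK9/CycT1 (insect cell, ~0.5 μg/mL) preincubated 15 min at 22 °C with compound in Tris pH 8.0, MgCl2, DTT buffer before reaction with biotinylated peptide substrate at high ATP (2 mM).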"}, "[1]": {"molecular_target": "T2, CDK12 (nuclear staining in CAL-120 cells) (Homo sapiens, UniProt Q9NYV4)", "T2 construct": "endogenous in cells; host or cells: CAL-120 human breast cancer cells (DSMZ ACC 459)", "T2 sequence (Q9NYV4 whole entry)": "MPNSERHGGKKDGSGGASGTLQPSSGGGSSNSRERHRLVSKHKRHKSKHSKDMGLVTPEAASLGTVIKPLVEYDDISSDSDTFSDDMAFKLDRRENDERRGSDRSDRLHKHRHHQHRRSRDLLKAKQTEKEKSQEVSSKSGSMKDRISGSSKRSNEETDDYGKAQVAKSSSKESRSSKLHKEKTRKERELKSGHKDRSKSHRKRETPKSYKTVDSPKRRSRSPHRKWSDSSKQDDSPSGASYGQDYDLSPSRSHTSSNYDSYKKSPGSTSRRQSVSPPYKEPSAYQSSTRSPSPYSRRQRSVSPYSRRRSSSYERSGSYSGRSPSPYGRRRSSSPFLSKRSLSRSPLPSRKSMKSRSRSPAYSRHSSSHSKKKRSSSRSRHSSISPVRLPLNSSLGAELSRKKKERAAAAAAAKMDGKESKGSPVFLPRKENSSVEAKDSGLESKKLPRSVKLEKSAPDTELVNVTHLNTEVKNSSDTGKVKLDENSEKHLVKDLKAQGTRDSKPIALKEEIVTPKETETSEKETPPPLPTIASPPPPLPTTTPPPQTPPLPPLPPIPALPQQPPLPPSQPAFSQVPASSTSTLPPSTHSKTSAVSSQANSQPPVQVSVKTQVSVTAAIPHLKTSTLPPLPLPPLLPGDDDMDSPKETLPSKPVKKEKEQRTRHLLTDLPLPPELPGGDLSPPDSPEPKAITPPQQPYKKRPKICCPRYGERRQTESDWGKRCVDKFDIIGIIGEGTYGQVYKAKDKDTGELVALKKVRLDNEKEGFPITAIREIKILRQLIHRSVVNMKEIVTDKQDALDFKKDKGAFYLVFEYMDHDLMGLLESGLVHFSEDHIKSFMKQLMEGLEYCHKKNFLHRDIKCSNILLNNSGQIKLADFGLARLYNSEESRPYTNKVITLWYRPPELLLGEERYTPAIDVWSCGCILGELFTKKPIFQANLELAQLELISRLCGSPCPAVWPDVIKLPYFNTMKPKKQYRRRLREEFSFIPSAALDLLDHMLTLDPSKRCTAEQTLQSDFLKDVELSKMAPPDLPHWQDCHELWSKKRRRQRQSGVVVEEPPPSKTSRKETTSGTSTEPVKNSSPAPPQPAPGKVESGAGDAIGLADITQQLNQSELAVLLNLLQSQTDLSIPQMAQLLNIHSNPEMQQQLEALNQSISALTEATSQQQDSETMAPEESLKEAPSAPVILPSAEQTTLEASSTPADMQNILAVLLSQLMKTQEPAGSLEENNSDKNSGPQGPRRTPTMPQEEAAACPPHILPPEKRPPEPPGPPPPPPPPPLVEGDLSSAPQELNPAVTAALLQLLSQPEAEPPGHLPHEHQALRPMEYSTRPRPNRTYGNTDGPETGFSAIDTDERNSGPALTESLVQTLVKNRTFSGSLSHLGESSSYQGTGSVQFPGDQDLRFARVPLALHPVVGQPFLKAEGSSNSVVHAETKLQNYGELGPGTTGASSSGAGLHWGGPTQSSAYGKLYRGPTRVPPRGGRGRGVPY", "T2 sequence (O75909 whole entry partner)": "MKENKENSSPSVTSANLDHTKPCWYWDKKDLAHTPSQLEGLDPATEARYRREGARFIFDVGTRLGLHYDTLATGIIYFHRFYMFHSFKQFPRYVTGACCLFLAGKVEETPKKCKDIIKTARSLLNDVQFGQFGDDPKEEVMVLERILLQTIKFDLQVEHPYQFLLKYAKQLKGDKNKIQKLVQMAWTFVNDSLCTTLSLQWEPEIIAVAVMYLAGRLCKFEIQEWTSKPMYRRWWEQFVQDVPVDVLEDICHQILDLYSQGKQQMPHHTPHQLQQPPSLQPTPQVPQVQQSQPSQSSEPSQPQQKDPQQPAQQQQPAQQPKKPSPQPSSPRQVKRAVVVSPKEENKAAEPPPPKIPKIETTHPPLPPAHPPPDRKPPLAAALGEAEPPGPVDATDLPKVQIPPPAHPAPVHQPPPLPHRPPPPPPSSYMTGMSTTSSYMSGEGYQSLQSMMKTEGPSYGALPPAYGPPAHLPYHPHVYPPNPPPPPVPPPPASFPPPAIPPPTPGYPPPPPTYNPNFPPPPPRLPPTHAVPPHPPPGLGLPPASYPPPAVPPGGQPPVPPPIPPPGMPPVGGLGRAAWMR", "assay": "CDK12 nuclear protein level: immunofluorescence/high content analysis (CAL-120)", "format": "cell-based", "settings": "for DC50: CAL-120 cells, 24 h, immunofluorescence, 50% reduction of nuclear CDK12 staining intensity, median, read-out: CDK12 degradation IF, DC50- [mol/l] (median); for (IC50 CDK12 high ATP) to (Degradation DC50 CDK12) ratio: ratio of IC50 CDK12 high ATP kinase assay to DC50 CDK12 degradation (IF, CAL-120)", "outline": "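DC50 is the degrader concentration that halves nuclear CDK12 immunofluorescence relative to controls, measured by high-content imaging. CAL-120 cells were exposed to compound for 24 h at 37 °C before PFA fixation, and signal was normalized to DMSO and control wells.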"}, "[2]": {"tested_on": "MDA-MB-231, human breast cancer cells", "assay": "Proliferation assay MDA-MB-231 (crystal violet, 4 days)", "format": "cell-based", "settings": "Homo sapiens, MDA-MB-231, 96 h, MDA-MB-231 cells, median, read-out: Prolif-MDA MB-231, IC50-[mol/l] (median)", "outline": "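Crystal violet proliferation read-out after 4 days of compound exposure (0.01-10 µmol/L; solvent 0.1% DMSO). Extinction at 595 nm, set between zero-point (0%) and vehicle (100%), fitted with 4 parameters to give IC50.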"}},
  "data": [
    {"smiles": "Fc1ccc(-c2nnc(CNc3nc(N4CCOCC4)nc4c(Br)cnn34)[nH]2)c(F)c1", "note": "[Example 41, 8-bromo-N-{[5-(2,4-difluorophenyl)-4H-1,2,4-triazol-3-yl]methyl}-2-(morpholin-4-yl)pyrazolo[1,5-a][1,3,5]triazin-4-amine]", "values": [
      {"measurement": "IC50", "setting": "CDK9/CycT1", "value": "> 20000", "unit": "nM"},
      {"measurement": "DC50", "setting": "[1]", "value": 4.06, "unit": "nM"}
    ]},
    {"smiles": "CC(C)c1cnn2c(NCc3nnc(-c4ccccc4)[nH]3)nc(N3CCOCC3)nc12", "note": "[Example 33, 2-(morpholin-4-yl)-N-[(5-phenyl-4H-1,2,4-triazol-3-yl)methyl]-8-(propan-2-yl)pyrazolo[1,5-a][1,3,5]triazin-4-amine]", "values": [
      {"measurement": "IC50", "setting": "CDK9/CycT1", "value": 14100, "unit": "nM"},
      {"measurement": "IC50", "setting": "[2]", "value": 290, "unit": "nM"},
      {"measurement": "DC50", "setting": "[1]", "value": 67.8, "unit": "nM"},
      {"measurement": "(IC50 CDK12 high ATP) to (Degradation DC50 CDK12) ratio", "setting": "[1]", "value": 77}
    ]},
    {"smiles": "Clc1cc2nc(CNc3nc(N4CCOCC4)nc4c(-c5cscn5)cnn34)[nH]c2cc1Cl", "note": "[Example 424, N-[(5,6-dichloro-1H-benzimidazol-2-yl)methyl]-2-(morpholin-4-yl)-8-(1,3-thiazol-4-yl)pyrazolo [1,5-a][1,3,5]triazin-4-amine]", "values": [
      {"measurement": "IC50", "setting": "CDK9/CycT1", "value": "> 20000", "unit": "nM"},
      {"measurement": "IC50", "setting": "[2]", "value": 73.7, "unit": "nM"},
      {"measurement": "DC50", "setting": "[1]", "value": 38.1, "unit": "nM"},
      {"measurement": "(IC50 CDK12 high ATP) to (Degradation DC50 CDK12) ratio", "setting": "[1]", "value": ">524"}
    ]},
    {"smiles": "CC(C)c1cnn2c(NCc3nnc(-c4ccccc4)[nH]3)nc(N3CCN(C)CC3)nc12", "note": "[Example 37, 2-(4-methylpiperazin-1-yl)-N-[(5-phenyl-4H-1,2,4-triazol-3-yl)methyl]-8-(propan-2-yl)pyrazolo[1,5-a][1,3,5]triazin-4-amine]", "values": [
      {"measurement": "IC50", "setting": "CDK9/CycT1", "value": "> 20000", "unit": "nM"},
      {"measurement": "DC50", "setting": "[1]", "value": 42.8, "unit": "nM"},
      {"measurement": "(IC50 CDK12 high ATP) to (Degradation DC50 CDK12) ratio", "setting": "[1]", "value": ">467"}
    ]},
    {"smiles": "Clc1cc2nc(CNc3nc(N4CCOCC4)nc4c(-c5ccnnc5)cnn34)[nH]c2cc1Cl.O=C(O)C(F)(F)F", "note": "[Example 440, trifluoroacetic acid N-[(5,6-dichloro-1H-benzimidazol-2-yl)methyl]-2-(morpholin-4-yl)-8-(pyridazin-4-yl)pyrazolo[1,5-a][1,3,5]triazin-4-amine]", "values": [
      {"measurement": "IC50", "setting": "CDK9/CycT1", "value": "> 20000", "unit": "nM"},
      {"measurement": "IC50", "setting": "[2]", "value": 21.4, "unit": "nM"},
      {"measurement": "DC50", "setting": "[1]", "value": 6.67, "unit": "nM"},
      {"measurement": "(IC50 CDK12 high ATP) to (Degradation DC50 CDK12) ratio", "setting": "[1]", "value": ">2996"}
    ]},
    {"smiles": "Brc1cnn2c(NCc3nc4ccccc4[nH]3)nc(OC3CCCCC3)nc12", "note": "[Example 406, N-[(1H-benzimidazol-2-yl)methyl]-8-bromo-2-(cyclohexyloxy)pyrazolo[1,5-a][1,3,5]triazin-4-amine]", "values": [
      {"measurement": "IC50", "setting": "CDK9/CycT1", "value": "> 20000", "unit": "nM"},
      {"measurement": "IC50", "setting": "[2]", "value": 283, "unit": "nM"},
      {"measurement": "DC50", "setting": "[1]", "value": 125, "unit": "nM"},
      {"measurement": "(IC50 CDK12 high ATP) to (Degradation DC50 CDK12) ratio", "setting": "[1]", "value": ">160"}
    ]},
    {"smiles": "Cc1cnn2c(NCc3nc4ccccc4[nH]3)nc(N(C)CC(C)(C)O)nc12", "note": "[Example 397, 1-[(4-{[(1H-benzimidazol-2-yl)methyl]amino}-8-methylpyrazolo[1,5-a][1,3,5]triazin-2-yl)(methyl)amino]-2-methylpropan-2-ol]", "values": [
      {"measurement": "IC50", "setting": "CDK9/CycT1", "value": "> 20000", "unit": "nM"},
      {"measurement": "IC50", "setting": "[2]", "value": 399, "unit": "nM"},
      {"measurement": "DC50", "setting": "[1]", "value": 28.1, "unit": "nM"},
      {"measurement": "(IC50 CDK12 high ATP) to (Degradation DC50 CDK12) ratio", "setting": "[1]", "value": ">623"}
    ]},
    {"smiles": "CC(C)c1cnn2c(NCc3ncc(-c4ccccc4)[nH]3)nc(N3CCCCC3)nc12", "note": "[Example 36, N-[(5-phenyl-1H-imidazol-2-yl)methyl]-2-(piperidin-1-yl)-8-(propan-2-yl)pyrazolo[1,5-a][1,3,5]triazin-4-amine]", "values": [
      {"measurement": "IC50", "setting": "CDK9/CycT1", "value": "> 20000", "unit": "nM"},
      {"measurement": "DC50", "setting": "[1]", "value": 86.5, "unit": "nM"},
      {"measurement": "(IC50 CDK12 high ATP) to (Degradation DC50 CDK12) ratio", "setting": "[1]", "value": ">231"}
    ]},
    {"smiles": "CCNc1nc(NCc2nnc(-c3ccccc3)[nH]2)n2ncc(C(C)C)c2n1", "note": "[Example 38, N^2-ethyl-N^4-[(5-phenyl-4H-1,2,4-triazol-3-yl)methyl]-8-(propan-2-yl)pyrazolo[1,5-a][1,3,5]triazine-2,4-diamine]", "values": [
      {"measurement": "IC50", "setting": "CDK9/CycT1", "value": "> 20000", "unit": "nM"},
      {"measurement": "DC50", "setting": "[1]", "value": 37.2, "unit": "nM"},
      {"measurement": "(IC50 CDK12 high ATP) to (Degradation DC50 CDK12) ratio", "setting": "[1]", "value": ">153"}
    ]},
    {"smiles": "CC(C)c1cnn2c(NCc3ncc(-c4ccccc4)[nH]3)nc(N(C)CC(C)(C)O)nc12", "note": "[Example 35, 2-methyl-1-{methyl[4-{[(5-phenyl-1H-imidazol-2-yl)methyl]amino}-8-(propan-2-yl)pyrazolo[1,5-a][1,3,5]triazin-2-yl]amino}propan-2-ol]", "values": [
      {"measurement": "IC50", "setting": "CDK9/CycT1", "value": 9150, "unit": "nM"},
      {"measurement": "DC50", "setting": "[1]", "value": 27.3, "unit": "nM"},
      {"measurement": "(IC50 CDK12 high ATP) to (Degradation DC50 CDK12) ratio", "setting": "[1]", "value": 81}
    ]}
  ]
}
